Measurements: patent publication US20160192658A1 (priority 2013, published 2016)

Test: in vitro
Conditions: human

Compound: NC(=O)c1ncn([C@@H]2O[C@H](CO)[C@@H](O)[C@H]2O)n1 [Ribavirin, ribavirin]
- CC50 at 5 days: > 200 µM
